ChEMBL document CHEMBL3352096, “New 9,19-cycloartenol glycosides isolated from the roots of Cimicifuga simplex and their anti-inflammatory effects” (Bioorg Med Chem Lett, 2014)
Calls of active or inactive are those of the source.

Experiments:
Format in all cases: functional, cell-based
RAW [1] = experiment: Antiinflammatory activity against mouse RAW cells assessed as inhibition of LPS-induced IL-23 production at 10 uM by Q-PCR analysis
RAW [2] = experiment: Antiinflammatory activity against mouse RAW cells assessed as inhibition of LPS-induced IL-6 production at 10 uM by Q-PCR analysis
RAW [3] = experiment: Antiinflammatory activity against mouse RAW cells assessed as inhibition of LPS-induced TNFalpha production at 10 uM by Q-PCR analysis

Measured: inhibition

CC(=O)O[C@@H]1C[C@@]23C[C@@]24CC[C@H](O[C@@H]2OC[C@@H](O)[C@H](O)[C@H]2O)C(C)(C)[C@@H]4CC=C3[C@]2(C)C[C@]3(O)O[C@H](C(=O)[C@@H]4OC4(C)C)[C@@H](C)[C@@H]3[C@@]12C
active: all assays above

CC(=O)O[C@@H]1C[C@@]23C[C@@]24CC[C@H](O[C@@H]2O[C@H](CO)[C@H](O)[C@H](O)[C@H]2O)C(C)(C)[C@@H]4CC[C@H]3[C@]2(C)C[C@]3(O)O[C@H](C(=O)[C@@H]4OC4(C)C)[C@@H](C)[C@@H]3[C@@]12C
active: all assays above
